Columns and labels:
[1] = target: Transient receptor potential cation channel subfamily V member 1 (Rattus norvegicus, UniProt O35433); assay: Antagonist activity at rat TRPV1 expressed in human HEK293 cells assessed as inhibition of capsaicin-induced influx by measuring intracellular calcium accumulation by fura-2 dye based fluorimetric assay; assay type: cell-based
[2] = Drug uptake in iv dosed Sprague-Dawley rat brain assessed as high radioactivity in brain cortical area and measured upto 60 mins by PET imaging analysis; assay type: ADME, organism-based; details: in vivo, 1 h
[3] = Drug uptake in iv dosed Sprague-Dawley rat brain hypothalamus assessed as high radioactivity in hypothalamus and measured upto 60 mins by PET imaging analysis; assay type: ADME, organism-based; details: in vivo, 1 h
[4] = Drug uptake in iv dosed Sprague-Dawley rat brain striatum assessed as high radioactivity in striatum and measured upto 60 mins by PET imaging analysis; assay type: ADME, organism-based; details: in vivo, 1 h
[5] = Drug uptake in iv dosed Sprague-Dawley rat brain medulla oblongata assessed as high radioactivity in medulla oblongata and measured upto 60 mins by PET imaging analysis; assay type: ADME, organism-based; details: in vivo, 1 h
[6] = Drug uptake in iv dosed Sprague-Dawley rat brain thalamus assessed as high radioactivity and measured upto 60 mins by PET imaging analysis; assay type: ADME, organism-based; details: in vivo, 1 h
[7] = Drug uptake in iv dosed Sprague-Dawley rat urinary bladder assessed as high radioactivity in urinary bladder and measured upto 60 mins by PET imaging analysis; assay type: ADME, organism-based; details: in vivo, 1 h
[8] = Drug uptake in iv dosed Sprague-Dawley rat gastrointestinal tract assessed as high radioactivity in gastrointestinal tract and measured upto 60 mins by PET imaging analysis; assay type: ADME, organism-based; details: in vivo, 1 h
[9] = Drug uptake in iv dosed Sprague-Dawley rat liver assessed as high radioactivity in liver and measured upto 60 mins by PET imaging analysis; assay type: ADME, organism-based; details: in vivo, 1 h
[10] = Drug uptake in iv dosed Sprague-Dawley rat skin assessed as high radioactivity in body surface and measured upto 60 mins by PET imaging analysis; assay type: ADME, organism-based, Skin of body; details: in vivo, 1 h
[11] = Drug uptake in iv dosed Sprague-Dawley rat brain cerebellum assessed as high radioactivity in brain cerebellum and measured upto 60 mins by PET imaging analysis; assay type: ADME, organism-based; details: in vivo, 1 h

Chain of Transient receptor potential cation channel subfamily V member 1 (O35433 whole entry): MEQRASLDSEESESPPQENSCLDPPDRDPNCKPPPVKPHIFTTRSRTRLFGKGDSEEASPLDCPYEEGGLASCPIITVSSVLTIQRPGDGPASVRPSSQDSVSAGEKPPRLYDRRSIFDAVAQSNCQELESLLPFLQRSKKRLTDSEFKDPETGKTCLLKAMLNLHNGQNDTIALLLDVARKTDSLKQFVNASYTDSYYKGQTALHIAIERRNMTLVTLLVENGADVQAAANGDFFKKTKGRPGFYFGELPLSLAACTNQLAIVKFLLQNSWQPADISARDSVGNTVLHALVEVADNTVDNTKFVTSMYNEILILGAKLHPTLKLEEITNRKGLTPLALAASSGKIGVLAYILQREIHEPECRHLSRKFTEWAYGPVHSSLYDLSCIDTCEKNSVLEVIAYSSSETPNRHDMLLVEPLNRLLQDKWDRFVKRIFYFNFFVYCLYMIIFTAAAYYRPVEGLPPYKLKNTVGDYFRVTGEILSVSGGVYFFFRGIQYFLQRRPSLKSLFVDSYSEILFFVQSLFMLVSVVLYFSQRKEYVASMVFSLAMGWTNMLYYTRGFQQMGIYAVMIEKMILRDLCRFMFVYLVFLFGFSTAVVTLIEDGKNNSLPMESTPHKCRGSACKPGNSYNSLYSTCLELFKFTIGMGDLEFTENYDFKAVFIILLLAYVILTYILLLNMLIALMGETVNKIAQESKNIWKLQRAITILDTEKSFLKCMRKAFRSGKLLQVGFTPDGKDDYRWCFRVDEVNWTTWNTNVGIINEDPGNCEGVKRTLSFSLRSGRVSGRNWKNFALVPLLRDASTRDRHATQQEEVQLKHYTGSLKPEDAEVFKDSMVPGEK

SMILES	IC50 [1] [nM]	Drug uptake [2]	Drug uptake [3]	Drug uptake [4]	Drug uptake [5]	Drug uptake [6]	other results
COc1cccc(NC(=O)/C=C/c2ccc(Cl)cc2)c1	3700						
CN(C(=O)/C=C/c1ccc(Cl)cc1)c1cccc(OCCCF)c1	1100						
CN(C(=O)/C=C/c1ccc(Cl)cc1)c1cccc(OCCF)c1	4200						
COc1cccc(N(C)C(=O)/C=C/c2ccc(Cl)cc2)c1	1300						
CN(C(=O)/C=C/c1ccc(Cl)cc1)c1cccc(OCCC[18F])c1		Active	Active	Active	Active	Active	
CN(C(=O)/C=C/c1ccc(Cl)cc1)c1cccc(O[11CH3])c1		Active	Active	Active	Active	Active	Drug uptake [7]: Active; Drug uptake [8]: Active; Drug uptake [9]: Active; Drug uptake [10]: Active; Drug uptake [11]: Active
